Experimental data published in patent US8945540B2, “Compositions for enhancing the antibacterial activity of myeloperoxidase and methods of use thereof” (Exoxemis, Inc., priority 2008, dated 2015).

Experiments:
Staphylococcus aureus [1] = test: Microbicidal activity of the myeloperoxidase system (p-MPO, glucose oxidase, glucose) with amino acids in the presence of blood, CFU plate counts; synergy determination from these CFU; type: cell-based; conditions: for Average Viability CFU/ml 50 min / Log Reduction 50 min: MPO 4.7 U/ml, GO 4.2 U/ml; for Predicted vs Actual: actual CFU as % of predicted value; for Predicted Average of Amino Acids: average of CFU of the individual D- and L-enantiomers; for Actual CFU: racemic mixture, standard conditions of Example 5
Procedure: Bacterial suspensions, specifically Staphylococcus aureus in this example, were prepared by the shake flask method to achieve late log to early stationary phase growth. Bacteria were grown 24 hours in trypticase soy broth (TSB) at 35° C. The cultures were centrifuged at 4,000 rpm for 10 minutes and the supernatants removed. The pellet was collected and washed twice with sterile 0.9% normal saline (NS). The washed microorganisms were suspended and diluted with normal saline to a 3 McFarland standard, i.e., approximately 10^9 bacteria colony forming units (CFU) per mL. Actual colony counts are confirmed by serial dilutions (10^−1 to 10^−5 or 10^−6) plated on TSA and incubated overnight at 35° C. To obtain an approximate final working target inoculum of 10^7 CFU/mL, 15 microliters of organisms per mL of final reaction mixture are used.
Glucose oxidase (GO) from Aspergillus Niger was purchased from Biozyme, Inc., UK, Cat #GO3A, 270 U/mg). Porcine Myeloperoxidase (p-MPO) (Exoxemis, Inc., Little Rock, Ark. U.S.A., 375 U/mg). Sterile stock solutions of D-glucose and sodium chloride were prepared and used at a final concentration of 150 mM each. L-Lysine hydrochloride (Spectrum Chemical Cat #L1142) was prepared as a 100 mM stock solution. Catalase (Sigma, Cat #C-40) was prepared as a 1% stock solution in sterile 0.9% normal saline. Blood was collected by venipuncture and used as whole blood within the same day.
Staphylococcus aureus were used to give a final target concentration of 2-3×10^7 CFU (7.4 log 10) per mL and venous whole blood was used to give a final concentration of 3%. Glucose was added to the reaction mixtures to a final concentration of 150 mM, which initiated the microbicidal reaction. The final volume of the reaction mixtures was 1 mL. The reactions were allowed to run from 30 minutes to 2 hours, as needed, at room temperature or at 37° C. in a dry bath. At the specified time points the reaction mixtures were treated with 100 microliters of a catalase solution, containing a minimum of 100 units/μL, to consume remaining peroxide and terminate the oxidative killing. Serial dilution plate counts were performed from the contents of each vial in sterile saline and inoculated onto trypticase soy agar (TSA) for quantitative culture. Plates were then incubated at 37° C. and counts taken at 24 hours. […] The results are shown in Table 1, as the average of 2 replicates.
The amino acids alone, in the absence of MPO were tested to rule out their microbicidal activity. The results are shown in Table 2 to Table 6, as the average of 2 replicates.
The amino acid analogues alone, in the absence of MPO, were tested to rule out their microbicidal activity. […]
The effect of two-way combinations of individual amino acids with L-isoleucine, as potential enhancing agents, for MPO microbicidal action in the presence of blood, was therefore examined by following the procedure of Example 5.
The Actual CFU observed for the pair is then divided by the Predicted CFU and multiplied by 100 to calculate the % of Predicted value. This value is then to be compared to the threshold value, discussed in the next section, to determine whether the pair are synergistic, antagonistic, or additive.
Calculation of appropriate threshold values for determination of synergism and antagonism was based upon the variability of replicated CFU survivor measures.

Staphylococcus aureus [2] = test: Control: microbicidal activity of the amino acid or analogue alone (no glucose, MPO, glucose oxidase) in the presence of blood; type: cell-based; conditions: amino acid alone 5 mM, MPO 0, GO 0, no glucose, blood, without replication
Source text: As a control to determine the microbicidal activity of the amino acids alone, the foregoing procedure was followed without replication, except in the absence of glucose, MPO, and glucose oxidase.

[3] = Table 3, amino acid 5 mM (none: 0 mM), MPO 38 U/ml, GO 33.3 U/ml, blood
[4] = Table 19, amino acid (racemic, L- or D-form) 2.5 mM, 50 min
[5] = Table 11, single amino acid 2.5 mM, in the presence of blood, 50 min
[6] = Table 14, single amino acid 2.5 mM, in the presence of blood, 50 min
[7] = single amino acid 2.5 mM, blood

SMILES	Average Viability CFU/ml 50 min (Staphylococcus aureus [1]; [4]) [CFU/ml]	Log Reduction 50 min (Staphylococcus aureus [1]; [4])	Predicted vs Actual (Staphylococcus aureus [1]) [%]	Predicted Average of Amino Acids (Staphylococcus aureus [1]) [CFU]	Actual CFU (Staphylococcus aureus [1]) [CFU]	also measured
CC(=O)C(=O)O [Pyruvic acid]	–	–	–	–	–	Average Viability CFU/ml 60 min (Staphylococcus aureus [1]; [3]): 4900000 CFU/ml; Log 10 (CFU + 1) Survivors 60 min (Staphylococcus aureus [1]; [3]): 6.7; Log Reduction 60 min (Staphylococcus aureus [1]; [3]): 0.6; log reduction at 5000 µM (Staphylococcus aureus [2]; Staphylococcus aureus, 1 h, read-out: Log Reduction 60 min): 0; Average Viability CFU/ml 60 min (Staphylococcus aureus [2]): 22100000 CFU/ml
CC(C)C(N)C(=O)O (racemic) [d,l-Valine]	685000	1.5	187	367250	685000	–
CC[C@H](C)[C@H](N)C(=O)O (racemic) [d,l-Isoleucine]	64000	2.7	39	162667	64000	–
CC(C)CC(N)C(=O)O (racemic) [d,l-Leucine]	650000	1.6	310	209500	650000	–
COC(=O)[C@@H](C)N [D-Ala methyl ester]	–	–	–	–	–	Average Viability CFU/ml 50 min (Staphylococcus aureus [1]; [5]): 9500000 CFU/ml; Log Reduction 50 min (Staphylococcus aureus [1]; [5]): 0.5; Average Viability CFU/ml 50 min (Staphylococcus aureus [1]; [6]): 8850000 CFU/ml; Log Reduction 50 min (Staphylococcus aureus [1]; [6]): 0.5
NC(Cc1ccccc1)C(=O)O (racemic) [d,l-Phenylalanine]	900000	1.4	9	9950000	900000	synergistic, antagonistic or additive (Staphylococcus aureus [1]; from % of predicted value): synergistic (synergistic combinations with responses less than 25% of the predicted value)
COC(=O)[C@@H](C)N [D-Alanine methyl ester]	–	–	–	–	–	Log 10 (CFU + 1) Survivors (Staphylococcus aureus [1]; MPO 25 μg/mL, AA 5 mM, 30 min): 0.0; Log 10 (CFU + 1) Survivors (Staphylococcus aureus [1]; MPO 25 μg/mL, AA 5 mM, 60 min): 0.0; Log 10 (CFU + 1) Survivors (Staphylococcus aureus [1]; MPO 25 μg/mL, AA […], 30 min): 0.0; Log 10 (CFU + 1) Survivors (Staphylococcus aureus [1]; MPO 25 μg/mL, AA […], 60 min): 0.0; Log 10 (CFU + 1) Survivors (Staphylococcus aureus [1]; MPO 100 μg/mL, AA 5 mM, 30 min): 0.0; Log 10 (CFU + 1) Survivors (Staphylococcus aureus [1]; MPO 100 μg/mL, AA 5 mM, 60 min): 0.0; Log 10 (CFU + 1) Survivors (Staphylococcus aureus [1]; MPO 100 μg/mL, AA 20 mM, 30 min): 0.0; Log 10 (CFU + 1) Survivors (Staphylococcus aureus [1]; MPO 100 μg/mL, AA 20 mM, 60 min): 0.0; Average Viability CFU/ml 50 min (Staphylococcus aureus [1]; [7]): 5450000 CFU/ml; Log Reduction 50 min (Staphylococcus aureus [1]; [7]): 0.6
